Laboratory results from US20230114728A1 (Venatorx Pharmaceuticals, Inc., priority 2019, published 2023).
Converted amounts (≈) assume the structure as drawn.

Assays:
Assay in all cases: Broth microdilution MIC in iron-depleted CAMHB (IDM)
Assay type in all cases: cell-based
[1] = test system: P. aeruginosa CDC-0054 producing VIM-4, OXA-50, and PAO; conditions: Pseudomonas aeruginosa, read-out: Minimum Inhibitory Concentration, P. aeruginosa CDC-0054
How it was run: (§1)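 CLSI broth microdilution in Chelex-treated cation-adjusted Mueller-Hinton broth, refortified with Ca, Mg and 10 μM ZnSO4, pH 7.3. Inoculum 2-8×10^5 CFU/mL; 37 °C for 16-20 h (Pseudomonas) or 20-24 h (Acinetobacter). MIC read visually as lowest concentration without growth.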

[2] = test system: P. aeruginosa CDC-0090 producing KPC-5, OXA-50, and PAO; conditions: Pseudomonas aeruginosa, read-out: Minimum Inhibitory Concentration, P. aeruginosa CDC-0090
How it was run: as §1

[3] = test system: P. aeruginosa CDC-0095 producing OXA-50, and PAO; conditions: Pseudomonas aeruginosa, read-out: Minimum Inhibitory Concentration, P. aeruginosa CDC-0095
How it was run: as §1

[4] = test system: A. baumannii CDC-0033 producing NDM-1, and OXA-94; conditions: Acinetobacter baumannii, read-out: Minimum Inhibitory Concentration, CDC-0033
How it was run: as §1

P. aeruginosa ATCC 27853 = conditions: Pseudomonas aeruginosa, ATCC27853, read-out: Minimum Inhibitory Concentration, P. aeruginosa ATCC 27853
How it was run: as §1

[5] = test system: A. baumannii CDC-0083 producing NDM-1, PER-7, OXA-23, and OXA-69; conditions: Acinetobacter baumannii, read-out: Minimum Inhibitory Concentration, CDC-0083
How it was run: as §1

A. baumannii ATCC 19606 = conditions: Acinetobacter baumannii, ATCC19606, read-out: Minimum Inhibitory Concentration, ATCC 19606
How it was run: as §1

A. baumannii ATCC 17978 = conditions: Acinetobacter baumannii, ATCC17978, read-out: Minimum Inhibitory Concentration, ATCC 17978
How it was run: as §1

[6] = test system: A. baumannii CDC-0036 OXA-65, and OXA-24; conditions: Acinetobacter baumannii, read-out: Minimum Inhibitory Concentration, CDC-0036
How it was run: as §1

P. aeruginosa ATCC 35151 = conditions: Pseudomonas aeruginosa, ATCC35151; iron-depleted MHB (IDM); hyper-permeable strain; read-out: Minimum Inhibitory Concentration, P. aeruginosa ATCC 35151
How it was run: as §1

[7] = test system: P. aeruginosa (ΔmexAB-oprM); conditions: Pseudomonas aeruginosa, read-out: Minimum Inhibitory Concentration, P. aeruginosa ΔmexAB-OprM
How it was run: as §1

Row | Compound | MIC [1] [mg/L] | MIC [2] [mg/L] | MIC [3] [mg/L] | MIC [4] [mg/L] | MIC (P. aeruginosa ATCC 27853) [mg/L] | MIC [5] [mg/L] | MIC (A. baumannii ATCC 19606) [mg/L] | MIC (A. baumannii ATCC 17978) [mg/L] | MIC [6] [mg/L] | MIC (P. aeruginosa ATCC 35151) [mg/L] | MIC [7] [mg/L]
1 | O=C(NCCCN1CCN(C(=O)NC(C(=O)N[C@H]2Cc3ccc(F)c(C(=O)O)c3OB2O)c2ncc(O)cc2F)C(=O)C1=O)c1ccc(O)c(O)c1Cl (stereo partly drawn) [Example 3, (3R)-3-(2-(4-(3-(2-chloro-3,4-dihydroxybenzamido)propyl)-2,3-dioxopiperazine-1-carboxamido)-2-(3-fluoro-5-hydroxypyridin-2-yl)acetamido)-7-fluoro-2-hydroxy-3,4-dihydro-2H-benzo[e][1,2]oxaborinine-8-carboxylic acid] | 2 to 4 (≈ 2.63 to 5.26 µM) | 8 to 16 (≈ 10.5 to 21 µM) | 8 to 16 (≈ 10.5 to 21 µM) | 32 to 64 (≈ 42.1 to 84.1 µM) | 2 to 4 (≈ 2.63 to 5.26 µM) | 32 to 64 (≈ 42.1 to 84.1 µM) | 32 to 64 (≈ 42.1 to 84.1 µM) | 8 to 16 (≈ 10.5 to 21 µM) | 32 to 64 (≈ 42.1 to 84.1 µM) | 0.25 (≈ 0.329 µM) | 0.5 to 1 (≈ 0.657 to 1.31 µM)
2 | Nc1nc(C(NC(=O)N2CCN(CCNC(=O)c3ccc(O)c(O)c3Cl)C(=O)C2=O)C(=O)N[C@H]2Cc3ccc(F)c(C(=O)O)c3OB2O)c(F)s1 (stereo partly drawn) [Example 4, (3R)-3-(2-(2-amino-5-fluorothiazol-4-yl)-2-(4-(2-(2-chloro-3,4-dihydroxybenzamido)ethyl)-2,3-dioxopiperazine-1-carboxamido)acetamido)-7-fluoro-2-hydroxy-3,4-dihydro-2H-benzo[e][1,2]oxaborinine-8-carboxylic acid] | 0.5 to 1 (≈ 0.665 to 1.33 µM) | 0.25 (≈ 0.333 µM) | 0.5 to 1 (≈ 0.665 to 1.33 µM) | 32 to 64 (≈ 42.6 to 85.1 µM) | 0.25 (≈ 0.333 µM) | 32 to 64 (≈ 42.6 to 85.1 µM) | 0.5 to 1 (≈ 0.665 to 1.33 µM) | 0.25 (≈ 0.333 µM) | 32 to 64 (≈ 42.6 to 85.1 µM) | 0.25 (≈ 0.333 µM) | 0.25 (≈ 0.333 µM)
3 | O=C(NCCN1CCN(C(=O)NC(C(=O)N[C@H]2Cc3ccc(F)c(C(=O)O)c3OB2O)c2ncc(O)cc2F)C(=O)C1=O)c1c(F)cc(O)c(O)c1Cl (stereo partly drawn) [Example 5, (3R)-3-(2-(4-(2-(2-chloro-6-fluoro-3,4-dihydroxybenzamido)ethyl)-2,3-dioxopiperazine-1-carboxamido)-2-(3-fluoro-5-hydroxypyridin-2-yl)acetamido)-7-fluoro-2-hydroxy-3,4-dihydro-2H-benzo[e][1,2]oxaborinine-8-carboxylic acid] | 0.25 (≈ 0.327 µM) | 0.25 (≈ 0.327 µM) | 0.5 to 1 (≈ 0.654 to 1.31 µM) | 2 to 4 (≈ 2.61 to 5.23 µM) | 0.25 (≈ 0.327 µM) | 32 to 64 (≈ 41.8 to 83.7 µM) | 0.5 to 1 (≈ 0.654 to 1.31 µM) | 0.25 (≈ 0.327 µM) | 32 to 64 (≈ 41.8 to 83.7 µM) | 0.25 (≈ 0.327 µM) | 0.25 (≈ 0.327 µM)
4 | Nc1nc(/C(=N/OC[C@H](NC(=O)c2ccc(O)c(O)c2Cl)C(=O)O)C(=O)N[C@H]2Cc3cccc(C(=O)O)c3OB2O)cs1 [Example 6, (R)-3-((Z)-2-(2-aminothiazol-4-yl)-2-(((S)-2-carboxy-2-(2-chloro-3,4-dihydroxybenzamido)ethoxy)imino)acetamido)-2-hydroxy-3,4-dihydro-2H-benzo[e][1,2]oxaborinine-8-carboxylic acid] | 0.5 to 1 (≈ 0.789 to 1.58 µM) | 0.5 to 1 (≈ 0.789 to 1.58 µM) | 2 to 4 (≈ 3.16 to 6.31 µM) | 32 to 64 (≈ 50.5 to 101 µM) | 0.5 to 1 (≈ 0.789 to 1.58 µM) | 32 to 64 (≈ 50.5 to 101 µM) | 32 to 64 (≈ 50.5 to 101 µM) | 8 to 16 (≈ 12.6 to 25.2 µM) | 32 to 64 (≈ 50.5 to 101 µM) | 0.25 (≈ 0.394 µM) | 0.5 to 1 (≈ 0.789 to 1.58 µM)
5 | NCCCN1CCN(C(=O)N[C@@H](C(=O)N[C@H]2Cc3cc(Cl)c(F)c(C(=O)O)c3OB2O)c2c(F)cc(O)c(O)c2Cl)C(=O)C1=O [Example 190, (R)-3-((R)-2-(4-(3-aminopropyl)-2,3-dioxopiperazine-1-carboxamido)-2-(2-chloro-6-fluoro-3,4-dihydroxyphenyl)acetamido)-6-chloro-7-fluoro-2-hydroxy-3,4-dihydro-2H-benzo[e][1,2]oxaborinine-8-carboxylic acid] | 8 to 16 (≈ 11.9 to 23.7 µM) | 0.5 to 1 (≈ 0.742 to 1.48 µM) | 8 to 16 (≈ 11.9 to 23.7 µM) | > 128 | 2 to 4 (≈ 2.97 to 5.93 µM) | > 128 | > 128 | 8 to 16 (≈ 11.9 to 23.7 µM) | > 128 | 0.5 to 1 (≈ 0.742 to 1.48 µM) | 0.25 (≈ 0.371 µM)
6 | CCN1CCN(C(=O)N[C@@H](C(=O)N[C@H]2Cc3cc(Cl)c(F)c(C(=O)O)c3OB2O)c2c(F)cc(O)c(O)c2Cl)C(=O)C1=O [Example 191, (R)-6-chloro-3-((R)-2-(2-chloro-6-fluoro-3,4-dihydroxyphenyl)-2-(4-ethyl-2,3-dioxopiperazine-1-carboxamido)acetamido)-7-fluoro-2-hydroxy-3,4-dihydro-2H-benzo[e][1,2]oxaborinine-8-carboxylic acid] | 2 to 4 (≈ 3.1 to 6.2 µM) | 8 to 16 (≈ 12.4 to 24.8 µM) | 8 to 16 (≈ 12.4 to 24.8 µM) | > 128 | 2 to 4 (≈ 3.1 to 6.2 µM) | > 128 | 8 to 16 (≈ 12.4 to 24.8 µM) | 2 to 4 (≈ 3.1 to 6.2 µM) | 32 to 64 (≈ 49.6 to 99.2 µM) | 0.25 (≈ 0.387 µM) | 0.25 (≈ 0.387 µM)
7 | CS(=O)(=O)N1CCN(C(=O)NC(C(=O)N[C@H]2Cc3ccc(F)c(C(=O)O)c3OB2O)c2c(Cl)cc(O)c(O)c2F)C1=O (stereo partly drawn) [Example 208, (3R)-3-(2-(6-chloro-2-fluoro-3,4-dihydroxyphenyl)-2-(3-(methylsulfonyl)-2-oxoimidazolidine-1-carboxamido)acetamido)-7-fluoro-2-hydroxy-3,4-dihydro-2H-benzo[e][1,2]oxaborinine-8-carboxylic acid] | 32 to 64 (≈ 50.6 to 101 µM) | 2 to 4 (≈ 3.16 to 6.32 µM) | 32 to 64 (≈ 50.6 to 101 µM) | 32 to 64 (≈ 50.6 to 101 µM) | 2 to 4 (≈ 3.16 to 6.32 µM) | > 128 | 2 to 4 (≈ 3.16 to 6.32 µM) | 0.5 to 1 (≈ 0.79 to 1.58 µM) | 8 to 16 (≈ 12.6 to 25.3 µM) | 0.25 (≈ 0.395 µM) | 2 to 4 (≈ 3.16 to 6.32 µM)
8 | CCN1CCN(C(=O)N[C@H](C(=O)N[C@H]2Cc3ccc(F)c(C(=O)O)c3OB2O)c2ccc(O)c(O)c2)C(=O)C1=O [Example 210, (R)-3-((S)-2-(3,4-dihydroxyphenyl)-2-(4-ethyl-2,3-dioxopiperazine-1-carboxamido)acetamido)-7-fluoro-2-hydroxy-3,4-dihydro-2H-benzo[e][1,2]oxaborinine-8-carboxylic acid] | > 128 | > 128 | > 128 | > 128 | > 128 | > 128 | > 128 | > 128 | > 128 | 2 to 4 (≈ 3.58 to 7.16 µM) | 8 to 16 (≈ 14.3 to 28.7 µM)
9 | CCN1CCN(C(=O)N[C@@H](C(=O)N[C@H]2Cc3ccc(F)c(C(=O)O)c3OB2O)c2ccc(O)c(O)c2)C(=O)C1=O [Example 211, (R)-3-((R)-2-(3,4-dihydroxyphenyl)-2-(4-ethyl-2,3-dioxopiperazine-1-carboxamido)acetamido)-7-fluoro-2-hydroxy-3,4-dihydro-2H-benzo[e][1,2]oxaborinine-8-carboxylic acid] | 8 to 16 (≈ 14.3 to 28.7 µM) | 8 to 16 (≈ 14.3 to 28.7 µM) | 8 to 16 (≈ 14.3 to 28.7 µM) | 32 to 64 (≈ 57.3 to 115 µM) | 8 to 16 (≈ 14.3 to 28.7 µM) | > 128 | 2 to 4 (≈ 3.58 to 7.16 µM) | 2 to 4 (≈ 3.58 to 7.16 µM) | 8 to 16 (≈ 14.3 to 28.7 µM) | 0.25 (≈ 0.448 µM) | 0.25 (≈ 0.448 µM)
